Assays:
KRAS = test: Alpha Screen PPI assays, summary over KRAS interactions (SOS1, CRAF, PI3Kα); assay type: biochemical, human
Excerpt: Using biochemical assays, we investigated whether 1 inhibited 3 of the 4 PPIs important for KRAS cycling (Fig. 5 A, i–iii). Namely, 1) GDP-KRAS interaction with the catalytic site of SOS ([33]), 2) GTP-KRAS interaction with the allosteric site of SOS ([34]), and 3) GTP-KRAS interaction with downstream effectors (CRAF and PI3Kα). We were unable to establish a biochemical assay for the fourth intervention point, namely, 4) GTP-KRAS interaction with its GAPs (Fig. 5 A, iv). As a reference compound for these assays, we used the KRAS^G12C-specific covalent inhibitor ARS-1620 ([35]). Compound 1 inhibited all 3 RAS cycle intervention points (1 to 3) in a dose-dependent manner (Fig. 5 B–E) in the range of 100 to 770 nM (SI Appendix, Table S6).
(§1) 217 The coordinates and structure factors of the structures have been deposited at the
(§2) 218 Protein Data Bank with the accession codes PDB Code 6GJ5, 6GJ6, 6GJ7, 6GJ8.
(§3) 221 Measurements of various protein–protein interactions were performed using the Alpha
(§4) 222 Screen technology developed by Perkin Elmer. Recombinant RAS proteins (H-, N-, K-
(§5) 223 RAS variants; all KRAS variants are based on KRAS isoform 4B (uniprot id P01116-2);
(§6) 224 KRAS (G12D) 1-169, N-terminal 6His-tag, C-terminal avi-tag was from Xtal
(§7) 225 BioStructures, Inc., KRAS (G12C) 1-169, C-terminal avi-tag, biotinylated, mutations:
(§8) 226 C51S, C80L, C118S, NRAS(wt) 1-172, C-terminal avi-tag, biotinylated; HRAS(wt) 1-
(§9) 227 166, C-terminal avi-tag, biotinylated). Biotinylation was performed in vitro with
228 recombinant BirA biotin-protein ligase as recommended by the manufacturer (Avidity
229 LLC, Aurora, Colorado, USA). Interacting proteins such as SOS1 (564-1049, N-terminal
230 GST-tag, TEV cleavage site), cRaf (1-303, N-terminal GST-tag, TEV cleavage site) and
(§10) 231 PI3KA- RBD (160-317, N-term-HIS_GST-tag) were expressed as glutathione S […]
(§11) 245 for 60 min in the dark at room temperature. Single oxygen induced fluorescence was
(§12) 246 measured at an Enspire multimode plate reader (Perkin Elmer) according to the
(§13) 247 manufacturer’s recommendations. Data were analyzed using the GraphPad Prism data […]

NCI-H358 cells = test: pAKT quantification (Meso Scale Discovery); assay type: cell-based, human
Protocol: as §1, §2, §3, §4, §5, §6, §7, §8, §9
228 recombinant BirA biotin-protein ligase as recommended by the manufacturer (Avidity […]
as §10, §11, §12, §13
313 added according to manufacturer’s instructions. Fluorescence intensity was determined
314 using a fluorescence reader (2030 VICTOR X5, Perkin Elmer). […]
319 MAPK pathway signaling (pERK, pAKT quantification) […]

GTP-KRASG12D::SOS1 = GTP-KRASG12D::SOS1 (Homo sapiens, UniProt P01116, G12D); test: KRASG12D::SOS1 GTP TR-FRET assay
GTP-KRASG12D::SOS1, sequence (P01116 1-169 isoform P01116-2 G12D): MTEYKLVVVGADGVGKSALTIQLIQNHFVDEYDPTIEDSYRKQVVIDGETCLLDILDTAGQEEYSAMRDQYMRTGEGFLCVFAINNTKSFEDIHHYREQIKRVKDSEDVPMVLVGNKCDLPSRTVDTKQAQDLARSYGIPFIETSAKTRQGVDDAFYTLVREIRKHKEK

**Q.** For `C=CC(=O)N1CCN(c2ncnc3c(F)c(-c4c(O)cccc4F)c(Cl)cc23)CC1` [ARS-1620, reference compound], which “activity in all GTP-dependent KRAS assays” value (KRAS) is on record?
**A.** inactive

**Q.** Which results are given for `Cn1cnc(Cn2ccc3ccc(CNCc4[nH]c5ccccc5c4[C@H]4NC(=O)c5ccc(O)cc54)cc32)c1` [Compound 1]?
**A.** IC50 (KRAS; GDP-KRAS::SOS, GTP-KRAS::SOS, GTP-KRAS::effectors (CRAF, PI3Kα), read-out: inhibition of all 3 RAS cycle intervention points, range): 0.1 to 0.77 µM; pAKT levels (NCI-H358 cells; high serum conditions): no reduction of pAKT levels; pAKT levels (NCI-H358 cells; starved 24 h low serum, 2 h compound, then EGF): dose-dependently reduced

**Q.** With `CN(C)Cc1[nH]c2ccccc2c1[C@H]1NC(=O)c2ccc(O)cc21` [Compound 18] as the molecule, how does the EC50 (GTP-KRASG12D::SOS1) read?
**A.** 33 µM

**Q.** What about the IC50 (GTP-KRASG12D::SOS1) of the same molecule?
**A.** 33 µM

Reference: paper PMC6689897, “Drugging an undruggable pocket on KRAS” (Proceedings of the National Academy of Sciences of the …, 2019)
